The test system of the experiment is 697 B-cell NF-kB luciferase reporter, PMA/ionomycin, 16 h. As to the kind of experiment: NF-kB luciferase reporter inhibition in 697 B cells – B-cell specific, luminescence, set 2, SAR follow-up (AID 504508). On the technique in general: In a reporter assay the amount or activity of a reporter protein is the signal.

The term IC50 denotes the point on the concentration scale where inhibition reaches its midpoint. Regarding `CCCOc1ccc(-c2nc(CSCC(=O)O)c(C)o2)cc1`, the IC50 is 40 nM. Then `CCCOc1ccc(-c2nc(CSCC(=O)NC3CC3)c(C)o2)cc1`, with 90 nM; and `CCOc1ccc(-c2nc(CSCC(=O)O)c(C)o2)cc1`, with 50 nM.

Take `Cc1oc(-c2ccc(OC(F)(F)F)cc2)nc1CSCC(=O)O`: the IC50 was 190 nM. For `CCCOc1ccc(-c2nc(CSCC(=O)NCc3ccco3)c(C)o2)cc1` the value was 90 nM; for `CC(C)c1ccc(-c2noc(CCC(=O)NC3CC3)n2)cc1`, 250 nM; for `CCOc1ccc(-c2nc(CSCC(N)=O)c(C)o2)cc1`, 80 nM. For `C#CCNC(=O)CSCc1nc(-c2ccc(OCC)cc2)oc1C`, the IC50 is 60 nM. For `CCCCc1ccc(-c2noc(CCC(=O)NCC)n2)cc1` the value was 130 nM. Regarding `CCCCOc1ccc(-c2nc(CSCC(=O)O)c(C)o2)cc1`, the IC50 was 80 nM. For `CCCCc1ccc(-c2noc(CCC(=O)NC)n2)cc1` the value was 110 nM.

(Values after PubChem BioAssay AID504508 (Sanford-Burnham Center for Chemical Genomics, 2011).)
